Laboratory results taken from patent US10590132B2, “Selective estrogen receptor down-regulators” (AstraZeneca AB, priority 2017, dated 2020).
One block for each compound: values may come before it.

Experiment: Human plasma protein binding (equilibrium dialysis)
Type: in vitro ADME
Conditions: dialysis 18 hours

Structure (SMILES): Cc1c(OCCN(C)CCCF)ccc(F)c1[C@@H]1c2[nH]c3ccccc3c2C[C@@H](C(F)(F)F)N1C[C@H](C)C(=O)O [Example 149, (S)-3-((1R,3S)-1-(6-fluoro-3-(2-((3-fluoropropyl)(methyl)amino)ethoxy)-2-methylphenyl)-3-(trifluoromethyl)-1,3,4,9-tetrahydro-2H-pyrido[3,4-b]indol-2-yl)-2-methylpropanoic acid]
Human plasma protein binding (% free): 5.3 % free

Structure (SMILES): C[C@@H]1Cc2c([nH]c3ccccc23)[C@@H](c2c(Cl)ccc(OCCNCCCF)c2F)N1C[C@H](C)C(=O)O [Example 54, (S)-3-((1R,3R)-1-(6-chloro-2-fluoro-3-(2-((3-fluoropropyl)amino)ethoxy)phenyl)-3-methyl-1,3,4,9-tetrahydro-2H-pyrido[3,4-b]indol-2-yl)-2-methylpropanoic acid]
Human plasma protein binding (% free): 18 % free

Structure (SMILES): C[C@@H]1Cc2c([nH]c3ccccc23)[C@@H](c2c(Cl)ccc(OCCNCCCF)c2Cl)N1C[C@H](C)C(=O)O [Example 128, (S)-3-((1R,3R)-1-(2,6-dichloro-3-(2-((3-fluoropropyl)amino)ethoxy)phenyl)-3-methyl-1,3,4,9-tetrahydro-2H-pyrido[3,4-b]indol-2-yl)-2-methylpropanoic acid]
Human plasma protein binding (% free): 15 % free

Structure (SMILES): Cc1ccc2[nH]c3c(c2c1)C[C@@H](C)N(CC(F)(F)CO)[C@@H]3c1c(F)ccc(OCCNCCCF)c1F [Example 63, 3-((1R,3R)-1-(2,6-difluoro-3-(2-((3-fluoropropyl)amino)ethoxy)phenyl)-3,6-dimethyl-1,3,4,9-tetrahydro-2H-pyrido[3,4-b]indol-2-yl)-2,2-difluoropropan-1-ol]
Human plasma protein binding (% free): 0.97 % free

Structure (SMILES): Cc1c(OCCN(C)CCCF)ccc(F)c1[C@@H]1c2[nH]c3ccccc3c2C[C@@H](C)N1CCC(=O)O [Example 163, 3-((1R,3R)-1-(6-fluoro-3-(2-((3-fluoropropyl)(methyl)amino)ethoxy)-2-methylphenyl)-3-methyl-1,3,4,9-tetrahydro-2H-pyrido[3,4-b]indol-2-yl)propanoic Acid]
Human plasma protein binding (% free): 49 % free

Structure (SMILES): Cc1c([C@@H]2c3[nH]c4ccccc4c3C[C@@H](C)N2C[C@@H](C)C(=O)O)ccnc1OCCN(C)CCCF [Example 161, (R)-3-((1R,3R)-1-(2-(2-((3-fluoropropyl)(methyl)amino)ethoxy)-3-methylpyridin-4-yl)-3-methyl-1,3,4,9-tetrahydro-2H-pyrido[3,4-b]indol-2-yl)-2-methylpropanoic Acid]
Human plasma protein binding (% free): 6.3 % free

Structure (SMILES): COc1ccc(OCCNCCCF)c(F)c1[C@@H]1c2[nH]c3ccc(F)cc3c2C[C@@H](C)N1CC(F)(F)CO [Example 86, 2,2-difluoro-3-((1R,3R)-6-fluoro-1-(2-fluoro-3-(2-((3-fluoropropyl)amino)ethoxy)-6-methoxyphenyl)-3-methyl-1,3,4,9-tetrahydro-2H-pyrido[3,4-b]indol-2-yl)propan-1-ol]
Human plasma protein binding (% free): 2.6 % free

Structure (SMILES): COc1ccc(OCCNCCCF)c(F)c1[C@@H]1c2[nH]c3ccccc3c2C[C@@H](C)N1CC1(F)CC1 [Example 83, 3-fluoro-N-(2-(2-fluoro-3-((1R,3R)-2-((1-fluorocyclopropyl)methyl)-3-methyl-2,3,4,9-tetrahydro-1H-pyrido[3,4-b]indol-1-yl)-4-methoxyphenoxy)ethyl)propan-1-amine]
Human plasma protein binding (% free): 2.5 % free

Structure (SMILES): COc1ccc(OCCNCCCF)c(F)c1[C@@H]1c2[nH]c3ccccc3c2C[C@@H](C)N1CC(F)F [Example 82, N-(2-(3-((1R,3R)-2-(2,2-difluoroethyl)-3-methyl-2,3,4,9-tetrahydro-1H-pyrido[3,4-b]indol-1-yl)-2-fluoro-4-methoxyphenoxy)ethyl)-3-fluoropropan-1-amine]
Human plasma protein binding (% free): 1.9 % free

Structure (SMILES): C[C@@H]1Cc2c([nH]c3ccc(F)cc23)[C@@H](c2c(F)cnc(OCCNCCCF)c2F)N1CC(F)(F)CO [Example 65, 3-((1R,3R)-1-(3,5-difluoro-2-(2-((3-fluoropropyl)amino)ethoxy)pyridin-4-yl)-6-fluoro-3-methyl-1,3,4,9-tetrahydro-2H-pyrido[3,4-b]indol-2-yl)-2,2-difluoropropan-1-ol]
Human plasma protein binding (% free): 1.9 % free

Structure (SMILES): COc1ccc(O[C@H](C)CNCCCF)cc1[C@@H]1c2[nH]c3ccccc3c2C[C@@H](C)N1CC(F)(F)CO [Example 47, 2,2-difluoro-3-((1R,3R)-1-(5-(((R)-1-((3-fluoropropyl)amino)propan-2-yl)oxy)-2-methoxyphenyl)-3-methyl-1,3,4,9-tetrahydro-2H-pyrido[3,4-b]indol-2-yl)propan-1-ol]
Human plasma protein binding (% free): 6.1 % free

Structure (SMILES): C[C@@H]1Cc2c([nH]c3ccccc23)[C@@H](c2c(F)cnc(OCCNCCCF)c2F)N1CC1(F)CC1 [Example 108, N-(2-((3,5-difluoro-4-((1R,3R)-2-((1-fluorocyclopropyl)methyl)-3-methyl-2,3,4,9-tetrahydro-1H-pyrido[3,4-b]indol-1-yl)pyridin-2-yl)oxy)ethyl)-3-fluoropropan-1-amine]
Human plasma protein binding (% free): 2.3 % free

Structure (SMILES): C[C@@H]1Cc2c([nH]c3ccccc23)[C@@H](c2c(F)ccc(OCCNCCCF)c2F)N1CC1(S(C)(=O)=O)CC1 [Example 77, N-(2-(2,4-difluoro-3-((1R,3R)-3-methyl-2-((1-(methylsulfonyl)cyclopropyl)methyl)-2,3,4,9-tetrahydro-1H-pyrido[3,4-b]indol-1-yl)phenoxy)ethyl)-3-fluoropropan-1-amine]
Human plasma protein binding (% free): 5.5 % free

Structure (SMILES): C[C@@H]1Cc2c([nH]c3ccccc23)[C@@H](c2c(F)ccc(OCCNCCCF)c2F)N1CC1(F)COC1 [Example 13, N-(2-(2,4-difluoro-3-((1R,3R)-2-((3-fluorooxetan-3-yl)methyl)-3-methyl-2,3,4,9-tetrahydro-1H-pyrido[3,4-b]indol-1-yl)phenoxy)ethyl)-3-fluoropropan-1-amine]
Human plasma protein binding (% free): 3.5 % free

Structure (SMILES): C[C@@H]1Cc2c([nH]c3ccc(F)cc23)[C@@H](c2c(F)ccc(OCCNCCCF)c2F)N1CC(F)(F)CO [Example 15, 3-((1R,3R)-1-(2,6-difluoro-3-(2-((3-fluoropropyl)amino)ethoxy)phenyl)-6-fluoro-3-methyl-1,3,4,9-tetrahydro-2H-pyrido[3,4-b]indol-2-yl)-2,2-difluoropropan-1-ol]
Human plasma protein binding (% free): 3.2 % free

Results, then the compound that gave them:

Human plasma protein binding (% free): 0.42 % free
Structure (SMILES): COc1c(F)cc(OCCNCCCF)cc1[C@@H]1c2[nH]c3ccccc3c2C[C@@H](C)N1CC(F)(F)F [Example 27, 3-fluoro-N-(2-(3-fluoro-4-methoxy-5-((1R,3R)-3-methyl-2-(2,2,2-trifluoroethyl)-2,3,4,9-tetrahydro-1H-pyrido[3,4-b]indol-1-yl)phenoxy)ethyl)propan-1-amine]

Human plasma protein binding (% free): 2.3 % free
Structure (SMILES): C[C@@H]1Cc2c([nH]c3ccccc23)[C@@H](c2cc(OCCNCCCF)ccc2Cl)N1CC(F)(F)CO [Example 44, 3-((1R,3R)-1-(2-chloro-5-(2-((3-fluoropropyl)amino)ethoxy)phenyl)-3-methyl-1,3,4,9-tetrahydro-2H-pyrido[3,4-b]indol-2-yl)-2,2-difluoropropan-1-ol]

Human plasma protein binding (% free): 1.2 % free
Structure (SMILES): COc1cc(F)c(OCCNCCCF)cc1[C@@H]1c2[nH]c3ccccc3c2C[C@@H](C)N1CC(F)(F)F [Example 28, 3-fluoro-N-(2-(2-fluoro-4-methoxy-5-((1R,3R)-3-methyl-2-(2,2,2-trifluoroethyl)-2,3,4,9-tetrahydro-1H-pyrido[3,4-b]indol-1-yl)phenoxy)ethyl)propan-1-amine]

Human plasma protein binding (% free): 0.080 % free
Structure (SMILES): C[C@@H]1Cc2c([nH]c3ccccc23)[C@@H](c2cccc(OCCNCCCF)c2Cl)N1CC(F)(F)F [Example 25, N-(2-(2-chloro-3-((1R,3R)-3-methyl-2-(2,2,2-trifluoroethyl)-2,3,4,9-tetrahydro-1H-pyrido[3,4-b]indol-1-yl)phenoxy)ethyl)-3-fluoropropan-1-amine]

Human plasma protein binding (% free): 1.5 % free
Structure (SMILES): COc1ccc(OCCNCCCF)cc1[C@@H]1c2[nH]c3ccccc3c2C[C@@H](C)N1CC(F)(F)F [Example 7, 3-Fluoro-N-(2-(4-methoxy-3-((1R,3R)-3-methyl-2-(2,2,2-trifluoroethyl)-2,3,4,9-tetrahydro-1H-pyrido[3,4-b]indol-1-yl)phenoxy)ethyl)propan-1-amine]

Human plasma protein binding (% free): 2 % free
Structure (SMILES): COc1ncc(OCCNCCCF)cc1[C@@H]1c2[nH]c3ccccc3c2C[C@@H](C)N1CC(F)(F)F [Example 36, 3-fluoro-N-(2-((6-methoxy-5-((1R,3R)-3-methyl-2-(2,2,2-trifluoroethyl)-2,3,4,9-tetrahydro-1H-pyrido[3,4-b]indol-1-yl)pyridin-3-yl)oxy)ethyl)propan-1-amine]

Human plasma protein binding (% free): 0.08 % free
Structure (SMILES): C[C@@H]1Cc2c([nH]c3ccccc23)[C@@](C)(c2cccc(OCCNCCCF)c2)N1CC(F)(F)F [Example 75, N-(2-(3-((1R,3R)-1,3-dimethyl-2-(2,2,2-trifluoroethyl)-2,3,4,9-tetrahydro-1H-pyrido[3,4-b]indol-1-yl)phenoxy)ethyl)-3-fluoropropan-1-amine]

Human plasma protein binding (% free): 2.8 % free
Structure (SMILES): COc1ccc(NCCNCCCF)nc1[C@@H]1c2[nH]c3ccccc3c2C[C@@H](C)N1CC(F)(F)F [Example 43, N1-(3-fluoropropyl)-N2-(5-methoxy-6-((1S,3R)-3-methyl-2-(2,2,2-trifluoroethyl)-2,3,4,9-tetrahydro-1H-pyrido[3,4-b]indol-1-yl)pyridin-2-yl)ethane-1,2-diamine]

Human plasma protein binding (% free): 1.0 % free
Structure (SMILES): C[C@@H]1Cc2c([nH]c3ccccc23)[C@@H](c2c(F)ccc(OCCNCCCF)c2Cl)N1CC(F)(F)CO [Example 85, 3-((1R,3R)-1-(2-chloro-6-fluoro-3-(2-((3-fluoropropyl)amino)ethoxy)phenyl)-3-methyl-1,3,4,9-tetrahydro-2H-pyrido[3,4-b]indol-2-yl)-2,2-difluoropropan-1-ol]
